Data taken from ChEMBL document CHEMBL6096721, “Discovery of Selenium-Containing Derivatives as Potent and Orally Bioavailable GLP-1R Agonists” (J Med Chem, 2025).
Values belong to the molecule of their own block, whether it stands above or below them. Activity calls are given as the source filed them. The calls are words filed in the database; no cut-off is given here.

Key:
[1] = molecular target: T1, Glucagon-like peptide 1 receptor (Homo sapiens, UniProt P43220); assay: Partial agonist activity at LgBit-tagged GLP-1R (unknown origin) transfected in HEK293 cells co-transfected with Smbit-tagged beta-arrestin-1 assessed as beta-arrestin recruitment incubated for 5 mins by envision microplate reader analysis; type: functional, cell-based
[2] = molecular target: T1, Glucagon-like peptide 1 receptor; assay: Partial agonist activity at LgBit-tagged GLP-1R (unknown origin) transfected in HEK293 cells co-transfected with Smbit-tagged beta-arrestin-1 assessed as beta-arrestin recruitment by measuring maximal efficacy incubated for 5 mins by envision microplate reader analysis relative to control; type: functional, cell-based
[3] = Cmax in male ICR mouse at 2 mg/kg, iv measured after 24 hrs by LC-MS/MS analysis; type: ADME, organism-based; conditions: in vivo
[4] = AUC (0 to t) in male ICR mouse at 2 mg/kg, iv measured after 24 hrs by LC-MS/MS analysis; type: ADME, organism-based; conditions: in vivo
[5] = Half-life in male ICR mouse at 2 mg/kg, iv measured after 24 hrs by LC-MS/MS analysis; type: ADME, organism-based; conditions: in vivo
[6] = MRT (0 to t) in male ICR mouse at 2 mg/kg, iv measured after 24 hrs by LC-MS/MS analysis; type: ADME, organism-based; conditions: in vivo
[7] = Apparent volume of distribution in male ICR mouse at 2 mg/kg, iv measured after 24 hrs by LC-MS/MS analysis; type: ADME, organism-based; conditions: in vivo, read-out: Vz
[8] = Clearance in male ICR mouse at 2 mg/kg, iv measured after 24 hrs by LC-MS/MS analysis; type: ADME, organism-based; conditions: in vivo
[9] = Cmax in male ICR mouse at 10 mg/kg, po measured after 24 hrs by LC-MS/MS analysis; type: ADME, organism-based; conditions: in vivo
[10] = Tmax in male ICR mouse at 10 mg/kg, po measured after 24 hrs by LC-MS/MS analysis; type: ADME, organism-based; conditions: in vivo
[11] = AUC (0 to t) in male ICR mouse at 10 mg/kg, po measured after 24 hrs by LC-MS/MS analysis; type: ADME, organism-based; conditions: in vivo
[12] = Half-life in male ICR mouse at 10 mg/kg, po measured after 24 hrs by LC-MS/MS analysis; type: ADME, organism-based; conditions: in vivo
[13] = MRT (0 to t) in male ICR mouse at 10 mg/kg, po measured after 24 hrs by LC-MS/MS analysis; type: ADME, organism-based; conditions: in vivo
[14] = Oral bioavailability in male ICR mouse at 10 mg/kg measured after 24 hrs by LC-MS/MS analysis; type: ADME, organism-based; conditions: in vivo
[15] = molecular target: T1, Glucagon-like peptide 1 receptor; assay: Agonist activity at human GLP-1R expressed in HEK293 cells assessed as cAMP accumulation incubated for 30 mins by LANCE ultra cAMP assay; type: functional, cell-based
[16] = system: Mus musculus; assay: Antidiabetic activity in human GLP-1R knockin male mouse model assessed as reduction in blood glucose level at 2 mg/kg, IG preadministered with compound for 1 hrs followed by glucose administration for 3 hrs by oral glucose tolerance test; type: functional, organism-based; conditions: time 4.0 hrs
[17] = system: Mus musculus; assay: (§1) Antidiabetic activity in human GLP-1R knockin male mouse model assessed as reduction in blood glucose level at 2 mg/kg, IG preadministered with compound for 1 hrs followed by first dose of glucose administration for 3 hrs and measured after 300 mins of second glucose administration by oral glucose tolerance test; type: functional, organism-based; conditions: time 540.0 min
[18] = system: Mus musculus; assay: Appetite suppressing activity in human GLP-1R knockin male mouse model assessed as reduction in food intake at 30 mg/kg, sc measured after 2.5 to 12 hrs; type: functional, organism-based; conditions: time 2.5-12 hrs
[19] = system: Mus musculus; assay: Appetite suppressing activity in human GLP-1R knockin male mouse model assessed as reduction in food intake at 30 mg/kg, sc measured at 12 to 24 hrs (light cycle); type: functional, organism-based; conditions: time 12-24 hrs
[20] = molecular target: T1, Glucagon-like peptide 1 receptor; assay: Binding affinity to human GLP-1R assessed as association rate constant by SPR analysis; conditions: filed as agonist
[21] = molecular target: T1, Glucagon-like peptide 1 receptor; assay: Binding affinity to human GLP-1R assessed as dissociation rate constant (Kd) by SPR analysis
[22] = molecular target: T1, Glucagon-like peptide 1 receptor; assay: Binding affinity to human GLP-1R assessed as dissociation constant (KD) by SPR analysis
[23] = Protein binding in mouse plasma at 2 uM; type: ADME, cell-free; conditions: read-out: PPB (converted)
[24] = Protein binding in mouse plasma at 2 uM assessed as unbound fraction; type: ADME, cell-free
[25] = Unbound Cmax in male ICR mouse at 10 mg/kg, po measured after 24 hrs by LC-MS/MS analysis; type: ADME, organism-based; conditions: in vivo
[26] = Subacute toxicity in male BALB/c mouse assessed as body weight loss at 150 mg/kg, po administered via gavage for 14 days; type: organism-based; conditions: in vivo, 336 h, time 14 day
[27] = Subacute toxicity in male BALB/c mouse assessed as mortality at 150 mg/kg, po administered via gavage for 14 days; type: organism-based; conditions: in vivo, 336 h, time 14 day
[28] = Subacute toxicity in male BALB/c mouse assessed as change in heart to body weight ratio at 150 mg/kg, po administered via gavage for 14 days; type: organism-based; conditions: in vivo, 336 h, time 14 day
[29] = Subacute toxicity in male BALB/c mouse assessed as change in liver to body weight ratio at 150 mg/kg, po administered via gavage for 14 days; type: organism-based; conditions: in vivo, 336 h, time 14 day
[30] = Subacute toxicity in male BALB/c mouse assessed as change in spleen to body weight ratio at 150 mg/kg, po administered via gavage for 14 days; type: organism-based; conditions: in vivo, 336 h, time 14 day
[31] = Subacute toxicity in male BALB/c mouse assessed as change in lung to body weight ratio at 150 mg/kg, po administered via gavage for 14 days; type: organism-based; conditions: in vivo, 336 h, time 14 day
[32] = Subacute toxicity in male BALB/c mouse assessed as change in kidney to body weight ratio at 150 mg/kg, po administered via gavage for 14 days; type: organism-based; conditions: in vivo, 336 h, time 14 day
[33] = Subacute toxicity in male BALB/c mouse assessed as pathologic change in heart at 150 mg/kg, po administered via gavage for 14 days by H and E staining based analysis; type: organism-based; conditions: in vivo, 336 h, time 14 day
[34] = Subacute toxicity in male BALB/c mouse assessed as pathologic change in lung at 150 mg/kg, po administered via gavage for 14 days by H and E staining based analysis; type: organism-based; conditions: in vivo, 336 h, time 14 day
[35] = Subacute toxicity in male BALB/c mouse assessed as pathologic change in liver at 150 mg/kg, po administered via gavage for 14 days by H and E staining based analysis; type: organism-based; conditions: in vivo, 336 h, time 14 day
[36] = Subacute toxicity in male BALB/c mouse assessed as pathologic change in spleen at 150 mg/kg, po administered via gavage for 14 days by H and E staining based analysis; type: organism-based; conditions: in vivo, 336 h, time 14 day
[37] = Subacute toxicity in male BALB/c mouse assessed as pathologic change in kidney at 150 mg/kg, po administered via gavage for 14 days by H and E staining based analysis; type: organism-based; conditions: in vivo, 336 h, time 14 day
[38] = Hepatotoxicity in male BALB/c mouse assessed as effect on ALT level at 150 mg/kg, po administered via gavage for 14 days; type: toxicity, organism-based; conditions: in vivo, 336 h, time 14 day
[39] = Hepatotoxicity in male BALB/c mouse assessed as effect on AST level at 150 mg/kg, po administered via gavage for 14 days; type: toxicity, organism-based; conditions: in vivo, 336 h, time 14 day
[40] = Nephrotoxicity in male BALB/c mouse assessed as effect on blood urea nitrogen level at 150 mg/kg, po administered via gavage for 14 days; type: toxicity, organism-based; conditions: in vivo, 336 h, time 14 day
[41] = Nephrotoxicity in male BALB/c mouse assessed as decrease in creatinine level at 150 mg/kg, po administered via gavage for 14 days; type: toxicity, organism-based; conditions: in vivo, 336 h, time 14 day
[42] = system: Mus musculus; assay: as §1, with “270” for “300”; type: functional, organism-based; conditions: time 510.0 min
[43] = Toxicity in human GLP-1R knockin male mouse model assessed as effect on AST level at 30 mg/kg, sc measured after 24 hrs; type: organism-based; conditions: in vivo
[44] = Toxicity in human GLP-1R knockin male mouse model assessed as effect on ALT level at 30 mg/kg, sc measured after 24 hrs; type: organism-based; conditions: in vivo
[45] = Toxicity in human GLP-1R knockin male mouse model assessed as effect on BUN level at 30 mg/kg, sc measured after 24 hrs; type: organism-based; conditions: in vivo
[46] = Toxicity in human GLP-1R knockin male mouse model assessed as effect on creatinine level at 30 mg/kg, sc measured after 24 hrs; type: organism-based; conditions: in vivo
[47] = Toxicity in human GLP-1R knockin male mouse model assessed as effect on heart pathology at 30 mg/kg, sc measured after 24 hrs by H and E staining based analysis; type: organism-based; conditions: in vivo
[48] = Toxicity in human GLP-1R knockin male mouse model assessed as effect on lung pathology at 30 mg/kg, sc measured after 24 hrs by H and E staining based analysis; type: organism-based; conditions: in vivo
[49] = Toxicity in human GLP-1R knockin male mouse model assessed as effect on liver pathology at 30 mg/kg, sc measured after 24 hrs by H and E staining based analysis; type: organism-based; conditions: in vivo
[50] = Toxicity in human GLP-1R knockin male mouse model assessed as effect on spleen pathology at 30 mg/kg, sc measured after 24 hrs by H and E staining based analysis; type: organism-based; conditions: in vivo
[51] = Toxicity in human GLP-1R knockin male mouse model assessed as effect on kidney pathology at 30 mg/kg, sc measured after 24 hrs by H and E staining based analysis; type: organism-based; conditions: in vivo

T1 sequence (P43220 whole entry): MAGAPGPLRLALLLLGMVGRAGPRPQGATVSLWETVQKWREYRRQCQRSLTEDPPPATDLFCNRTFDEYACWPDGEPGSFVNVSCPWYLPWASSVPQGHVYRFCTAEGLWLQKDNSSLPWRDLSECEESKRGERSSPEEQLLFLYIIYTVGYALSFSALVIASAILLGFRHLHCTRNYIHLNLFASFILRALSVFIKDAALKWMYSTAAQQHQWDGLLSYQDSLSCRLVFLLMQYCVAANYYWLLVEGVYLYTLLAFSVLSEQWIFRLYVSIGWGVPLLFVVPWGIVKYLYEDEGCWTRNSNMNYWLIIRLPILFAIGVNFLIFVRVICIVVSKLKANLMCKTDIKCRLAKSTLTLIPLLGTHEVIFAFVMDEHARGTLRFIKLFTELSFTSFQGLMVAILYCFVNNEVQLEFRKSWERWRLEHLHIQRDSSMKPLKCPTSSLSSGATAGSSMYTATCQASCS

- EC50 [1]: > 200 µM
- Emax [2]: 12%
- Cmax [3]: 13400 ng/mL
- AUC(0-t) at 24 h [4]: 3260 ng·h/mL
- half-life [5]: 4.52 h
- MRT last at 24 h [6]: 0.4 h
- Vd [7]: 4.25 L/kg
- clearance [8]: 10.3 mL/min/kg
- Cmax [9]: 324 ng/mL
- Tmax [10]: 0.5 h
- AUC(0-t) at 24 h [11]: 537 ng·h/mL
- half-life [12]: 7.02 h
- MRT last at 24 h [13]: 2.88 h
- bioavailability [14]: 3.38%
SMILES: COc1cc(C#N)ccc1C[Se]c1cccc(N2C=NN(Cc3nc4c(F)cc(C(=O)O)cc4n3C[C@@H]3CCO3)CC2)n1

- EC50 [15]: > 200 µM
SMILES: CC(C)[C@H](NCc1nc2ccc(C(=O)O)cc2n1C[C@@H]1CCO1)C(=O)Nc1cccc([Se]Cc2ccc(C#N)cc2F)n1

SMILES: N#Cc1ccc(COc2cccc(C3CCN(Cc4nc5ccc(C(=O)O)cc5n4C[C@@H]4CCO4)CC3)n2)c(F)c1
- Activity [16]: Active
- Activity [17]: Active
- Activity [18]: Active
- Activity [19]: Active

SMILES: COc1cc(C#N)ccc1C[Se]c1cccc(C2CCN(Cc3nc4ccc(C(=O)O)cc4n3C[C@@H]3CCO3)CC2)n1
- EC50 [1]: > 200 µM
- Emax [2]: 13%
- Ka [20]: 5.52 10^3/M.s
- Kd [21]: 5.53 10^-3/s
- Kd [22]: 1 µM
- Cmax [3]: 8110 ng/mL
- AUC(0-t) at 24 h [4]: 5460 ng·h/mL
- half-life [5]: 2.22 h
- MRT last at 24 h [6]: 0.77 h
- Vd [7]: 1.18 L/kg
- clearance [8]: 6.12 mL/min/kg
- Cmax [9]: 4960 ng/mL
- Tmax [10]: 0.5 h
- AUC(0-t) at 24 h [11]: 5540 ng·h/mL
- half-life [12]: 5.13 h
- MRT last at 24 h [13]: 1.91 h
- bioavailability [14]: 20.4%
- fraction unbound at 2 µM [23]: 0.02
- fraction unbound at 2 µM [24]: 0.02
- fCmax [25]: 99.21 ng/mL
- Activity [26]: Non-toxic
- Activity [27]: Non-toxic
- Activity [28]: Non-toxic
- Activity [29]: Non-toxic
- Activity [30]: Non-toxic
- Activity [31]: Non-toxic
- Activity [32]: Non-toxic
- Activity [33]: Non-toxic
- Activity [34]: Non-toxic
- Activity [35]: Non-toxic
- Activity [36]: Non-toxic
- Activity [37]: Non-toxic
- Activity [38]: Non-toxic
- Activity [39]: Non-toxic
- Activity [40]: Non-toxic
- Activity [41]: Toxic
- Activity [16]: Active
- Activity [42]: Active
- Activity [18]: Active
- Activity [19]: Active
- Activity [43]: Non-toxic
- Activity [44]: Non-toxic
- Activity [45]: Non-toxic
- Activity [46]: Non-toxic
- Activity [47]: Non-toxic
- Activity [48]: Non-toxic
- Activity [49]: Non-toxic
- Activity [50]: Non-toxic
- Activity [51]: Non-toxic
